What was measured:
gram-positive bacteria = conditions: disclosed in U.S. Pat. No. 4,331,803; cited from earlier work
[1] = Solubility of clarithromycin in non-aqueous media on complexation with zinc salt; type: physicochemical; conditions: molar ratio about 1:0.2 to about 1:2
Description: Clarithromycin and the zinc salt are preferably combined in a molar ratio ranging from about 1:0.2 to about 1:2. This ratio permits the occurrence of effective complexation of the zinc and clarithromycin.

## CC[C@H]1OC(=O)[C@H](C)[C@@H](O[C@H]2C[C@@](C)(OC)[C@@H](O)[C@H](C)O2)[C@H](C)[C@@H](O[C@@H]2O[C@H](C)C[C@H](N(C)C)[C@H]2O)[C@](C)(OC)C[C@@H](C)C(=O)[C@H](C)[C@@H](O)[C@]1(C)O [clarithromycin]
gram-positive bacteria
  Antibacterial activity against gram-positive bacteria: strong antibacterial activity
[1]
  Solubility of clarithromycin in a non-aqueous media: increases the solubility

From patent US20050079228A1, “Clear, stable topical compositions of clarithromycin and processes for their preparation” (priority 2003, published 2005)
